Tests used:
Mus musculus [1] = organism: Mus musculus; experiment: Inhibition of Hedgehog signaling pathway in mouse C3H10T1/2 cells assessed as reduction in oxysterol-induced Gli1 mRNA expression at 5 uM after 24 hrs by q-PCR analysis relative to oxysterol alone; format: cell-based
[2] = target: T1, Cyp24A1 mRNA (readout of VDR activation) (Mus musculus, UniProt P48281); experiment: Activation of VDR in mouse C3H10T1/2 cells assessed as change in Cyp24A1 mRNA expression at 5 uM after 24 hrs by q-PCR analysis relative to control; format: ADME, cell-based; details: read-out: FC
T1 sequence (P48281 whole entry): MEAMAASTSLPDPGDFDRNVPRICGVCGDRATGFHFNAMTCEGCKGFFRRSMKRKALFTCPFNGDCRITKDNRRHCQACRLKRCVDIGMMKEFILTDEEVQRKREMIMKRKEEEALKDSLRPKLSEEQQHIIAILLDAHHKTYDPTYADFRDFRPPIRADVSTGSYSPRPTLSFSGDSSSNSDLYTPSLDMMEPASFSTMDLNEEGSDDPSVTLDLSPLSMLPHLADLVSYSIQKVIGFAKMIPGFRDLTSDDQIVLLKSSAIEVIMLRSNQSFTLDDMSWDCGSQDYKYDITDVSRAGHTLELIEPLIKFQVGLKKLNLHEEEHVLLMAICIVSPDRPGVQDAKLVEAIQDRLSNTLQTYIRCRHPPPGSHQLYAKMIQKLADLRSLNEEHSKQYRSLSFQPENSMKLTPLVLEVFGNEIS

[3] = (§1) Inhibition of Hedgehog signaling pathway in mouse C3H10T1/2 cells assessed as reduction in oxysterol-induced Gli1 mRNA expression after 24 hrs by q-PCR analysis; format: cell-based; details: C3H 10T1/2, 24 h
Mus musculus [4] = organism: Mus musculus; experiment: as §1; format: cell-based
[5] = Inhibition of Hedgehog signaling pathway in mouse ASZ001 cells assessed as reduction in oxysterol-induced Gli1 mRNA expression after 24 hrs by q-PCR analysis; format: cell-based; details: ASZ001, 24 h
[6] = target: T1, Cyp24A1 mRNA (readout of VDR activation); experiment: Activation of VDR in mouse ASZ001 cells assessed as change in Cyp24A1 mRNA expression at 5 uM after 24 hrs by q-PCR analysis relative to control; format: ADME, cell-based; details: read-out: FC

| SMILES | inhibition (Mus musculus [1]) [%] | fold induction at 24 h, 5 µM [2] | IC50 [3] [µM] | inhibition (Mus musculus [4]) | IC50 [5] [µM] | fold induction at 24 h, 5 µM [6] |
| --- | --- | --- | --- | --- | --- | --- |
| CC(C)CCC[C@@H](C)[C@H]1CC[C@H]2[C@@H](OC(=O)c3cccc(O)c3)C[C@H](C3CCCCC3)C[C@]12C | 92 | 2.8 | – | – | – | – |
| C=C[C@H]1CC(=O)[C@@H]2CC[C@H]([C@H](C)CCCC(C)C)[C@@]2(C)C1 | 28 | 19 | – | – | – | – |
| CC(C)CCC[C@@H](C)[C@H]1CC[C@H]2[C@@H](OC(=O)c3cccc(O)c3)C[C@H](Cc3ccccc3)C[C@]12C | 85 | 3.6 | – | – | – | – |
| CC(C)CCC[C@@H](C)[C@H]1CC[C@H]2[C@@H](O)C[C@H](CCO)C[C@]12C | 39 | 17 | 4.7 | Dose-dependent effect | – | – |
| CC(C)CCC[C@@H](C)[C@H]1CC[C@H]2[C@@H](OC(=O)c3cccc(O)c3)C[C@H](CCO)C[C@]12C | 8.7 | 9 | 2 | Dose-dependent effect | 4.1 | 1.1 |
| CC(C)CCC[C@@H](C)[C@H]1CC[C@H]2[C@@H](OC(=O)c3cccc(O)c3)C[C@H](c3ccccc3)C[C@]12C | 71 | 2.3 | – | – | – | – |
| CC[C@@H]1C[C@H](OC(=O)c2cccc(O)c2)[C@@H]2CC[C@H]([C@H](C)CCCC(C)C)[C@@]2(C)C1 | 2 | 3.6 | 0.92 | Dose-dependent effect | 5.2 | 1.3 |
| CC(C)CCC[C@@H](C)[C@H]1CC[C@H]2[C@@H](Nc3ccc(O)cc3)C[C@H](CCO)C[C@]12C | 1.1 | 7.2 | 2.7 | Dose-dependent effect | 1 | 2 |
| C#CCCC(=O)OCC[C@H]1C[C@H](OC(=O)c2cccc(O)c2)[C@@H]2CC[C@H]([C@H](C)CCCC(C)C)[C@@]2(C)C1 | 16 | 4.8 | 6.3 | Dose-dependent effect | 7.5 | 0.96 |

From ChEMBL document CHEMBL4052810, “Synthesis and evaluation of vitamin D3 analogues with C-11 modifications as inhibitors of Hedgehog signaling” (Bioorg Med Chem Lett, 2017)
